Reference: publication PMC7248570 (Frontiers in Microbiology, 2020)

How the values were obtained:
CgLAO = type: biochemical, Infundibulicybe geotropa
CgmycLAO = type: biochemical, Infundibulicybe geotropa

## CC(C)C[C@H](N)C(=O)O [L-Leu]
CgLAO
  Km: 550 ± 60 µM
CgmycLAO
  Km: 1520 ± 60 µM
